Patent US7524860B2, “Antibacterial agents” (Pfizer Inc., priority 2004, dated 2009)
Converted amounts (≈) assume the structure as drawn. Read-outs that look alike come from different tables or passages of the source.

How the values were obtained:
[1] = test system: Neisseria gonorrhoeae, GC525 (NG-2888); experiment: in-vitro antibacterial activity, microbroth dilution MIC susceptibility testing; format: cell-based; set-up: unit: ug/mL; conditions: microbroth dilution in gonococcal broth, 20-24 hours at 35 C, lowest concentration preventing visible growth
Method in brief: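 Broth microdilution in gonococcal broth, inoculum ~5×10^5 cfu/mL, 20-24 h at 35 C in humidified CO2; compounds from 2 mg/mL DMSO stocks over 64-0.06 and 1-0.001 ug/mL two-fold series. MIC is the lowest concentration preventing visible growth, read visually; duplicates differing one well give the lower value, two wells the middle value.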

[2] = Neisseria gonorrhoeae, read-out: MIC

| Compound | MIC [1, 2] [mg/L] | melting point | MIC [1] [mg/L] |
| --- | --- | --- | --- |
| CCNC(=O)Nc1nc2cc(-c3cccnc3)ccn2n1 [Example 1, 1-Ethyl-3-(7-pyridin-3-yl-[1,2,4]triazolo[1,5-a]pyridin-2-yl)-urea] | 32 (≈ 113 µM) | 230 to 233 °C |  |
| CCNC(=O)Nc1nc2cc(-c3ccc(OC)nc3)ccn2n1 [Example 2, 1-Ethyl-3-[7-(6-methoxy-pyridin-3-yl)-[1,2,4]triazolo[1,5-a]pyridin-2-yl]-urea] | > 64 | 230 to 233 °C |  |
| CCNC(=O)Nc1nc2cc(-c3cnc(OC)nc3)ccn2n1 [Example 3, 1-Ethyl-3-[7-(2-methoxy-pyrimidin-5-yl)-[1,2,4]triazolo[1,5-a]pyridin-2-yl]-urea] | > 64 | 243 to 248 °C |  |
| CCNC(=O)Nc1nc2cc(-c3cccnc3)cc(C(=O)OC)n2n1 [Example 6, 2-(3-Ethyl-ureido)-7-pyridin-3-yl-[1,2,4]triazolo[1,5-a]pyridine-5-carboxylic acid methyl ester] | 16 (≈ 47 µM) | 211 to 213 °C |  |
| CCNC(=O)Nc1nc2cc(-c3cccnc3)cc(C(=O)NC)n2n1 [Example 7, 2-(3-Ethyl-ureido)-7-pyridin-3-yl-[1,2,4]triazolo[1,5-a]pyridine-5-carboxylic acid methylamide] | 2 (≈ 5.89 µM) | > 300 °C |  |
| CCNC(=O)Nc1nc2cc(-c3cccnc3)cc(C(=O)OCC)n2n1 [Example 16, 2-(3-ethyl-ureido)-7-pyridin-3-yl-[1,2,4]triazolo[1,5-a]pyridine-5-carboxylic acid ethyl ester] |  | 242 to 245 °C |  |
| CCNC(=O)Nc1nc2cc(-c3cccnc3)cc(-c3nc(C)no3)n2n1 [Example 18, 1-Ethyl-3-[5-(3-methyl-[1,2,4]oxadiazol-5-yl)-7-pyridin-3-yl-[1,2,4]triazolo[1,5-a]pyridin-2-yl]-urea] |  | 298 to 301 °C |  |
| CCNC(=O)Nc1nc2cc(-c3cncnc3)cc(C(=O)NCC)n2n1 [Example 19, N-Ethyl-2-{[(ethylamino)carbonyl]amino}-7-pyrimidin-5-yl[1,2,4]triazolo[1,5-a]pyridine-5-carboxamide] | 1 (≈ 2.82 µM) | 317 to 321 °C |  |
| CCNC(=O)Nc1nc2cc(-c3cnc(N(C)C)nc3)cc(C(=O)NCC)n2n1 [Example 20, 7-[2-(Dimethylamino)pyrimidin-5-yl]-N-ethyl-2-{[(ethylamino)carbonyl]amino}[1,2,4]triazolo[1,5-a]pyridine-5-carboxamide] | 1 (≈ 2.52 µM) | 328 to 334 °C |  |
| CCNC(=O)Nc1nc2cc(-c3c(C)noc3C)cc(C(=O)NCC)n2n1 [Example 21, 7-(3,5-Dimethylisoxazol-4-yl)-N-ethyl-2-{[(ethylamino)carbonyl]amino}[1,2,4]triazolo[1,5-a]pyridine-5-carboxamide] | > 64 | 238 to 241 °C |  |
| CCNC(=O)Nc1nc2cc(-c3cccnc3)cc(-c3nnc(C)o3)n2n1 [Example 23, N-Ethyl-N′-[5-(5-methyl-1,3,4-oxadiazol-2-yl)-7-pyridin-3-yl[1,2,4]triazolo[1,5-a]pyridin-2-yl]urea] | > 64 | 318 to 321 °C |  |
| CCNC(=O)Nc1nc2cc(-c3cccnc3)cc(N3CCC(N(C)C)C3)n2n1 (centres unmarked) [Example 130, 1-[5-(3-Dimethylamino-pyrrolidin-1-yl)-7-pyridin-3-yl-[1,2,4]triazolo[1,5-a]pyridin-2-yl]-3-ethyl-urea] | 16 (≈ 40.6 µM) | 248 to 250 °C |  |
| CCNC(=O)Nc1nc2cc(-c3cccnc3)cc(N3CCOCC3)n2n1 [Example 133, 1-Ethyl-3-(5-morpholin-4-yl-7-pyridin-3-yl-[1,2,4]triazolo[1,5-a]pyridin-2-yl)-urea] | 0.25 (≈ 0.68 µM) | 298 to 300 °C |  |
| CCNC(=O)Nc1nc2cc(-c3cccnc3)cc(N3CCC(O)C3)n2n1 (centres unmarked) [Example 134, 1-Ethyl-3-[5-(3-hydroxy-pyrrolidin-1-yl)-7-pyridin-3-yl-[1,2,4]triazolo[1,5-a]pyridin-2-yl]-urea] | 32 (≈ 87.1 µM) | 296 to 298 °C |  |
| CCNC(=O)Nc1nc2cc(-c3cccnc3)cc(-c3cnc(C(C)C)s3)n2n1 [Example 140, 1-Ethyl-3-[5-(2-i-propyl-thiazol-5-yl)-7-pyridin-3-yl-[1,2,4]triazolo[1,5-a]pyridin-2-yl]-urea] | 64 (≈ 157 µM) |  |  |
| CCNC(=O)Nc1nc2cc(-c3cccnc3)cc(OCCN(C)C)n2n1 [Example 141, 1-[5-(2-Dimethylamino-ethoxy)-7-pyridin-3-yl-[1,2,4]triazolo[1,5-a]pyridin-2-yl]-3-ethyl-urea] | 32 (≈ 86.6 µM) | 200 to 202 °C |  |
| CCNC(=O)Nc1nc2cc(-c3cccnc3)cc(-c3ccc(OC)nc3)n2n1 [Example 142, N-Ethyl-N′-[5-(6-methoxypyridin-3-yl)-7-pyridin-3-yl[1,2,4]triazolo[1,5-a]pyridin-2-yl]urea] | 16 (≈ 41.1 µM) |  |  |
| CCNC(=O)Nc1nc2cc(-c3cccnc3)cc(OCCN3CCCC3)n2n1 [Example 143, N-Ethyl-N′-[7-pyridin-3-yl-5-(2-pyrrolidin-1-ylethoxy)[1,2,4]triazolo[1,5-a]pyridin-2-yl]urea] | 32 (≈ 80.9 µM) | 189 to 192 °C (dec.) |  |
| CCNC(=O)Nc1nc2cc(-c3cccnc3)cc(OCCN3CCCCC3)n2n1 [Example 144, 1-Ethyl-3-[5-(2-piperidin-1-yl-ethoxy)-7-pyridin-3-yl-[1,2,4]triazolo[1,5-a]pyridin-2-yl]-urea] | 32 (≈ 78.1 µM) |  |  |
| CCNC(=O)Nc1nc2cc(-c3cccnc3)cc(N3CCNCC3)n2n1 [Example 146, 1-Ethyl-3-(5-piperazin-1-yl-7-pyridin-3-yl-[1,2,4]triazolo[1,5-a]pyridin-2-yl)-urea] | 32 (≈ 87.3 µM) |  |  |
| CCNC(=O)c1cc(-c2cccnc2)cc2nc(NS(C)(=O)=O)nn12 [Example 147, 2-N-Methylsulfonylamino-7-pyridin-3-yl-[1,2,4]triazolo[1,5-a]pyridin-5-carboxylic acid ethyl amide] |  |  | 4.00 (≈ 11.1 µM) |
| CCNC(=O)Nc1nc2cc(-c3cccnc3)cc(-c3oc(C)nc3C)n2n1 [Example 148, N-[5-(2,4-Dimethyl-1,3-oxazol-5-yl)-7-pyridin-3-yl[1,2,4]triazolo[1,5-a]pyridin-2-yl]-N′-ethylurea] | 4 (≈ 10.6 µM) |  |  |
| CCNC(=O)Nc1nc2cc(-c3ccc(OC)nc3)cc(-c3cnc(C)o3)n2n1 [Example 149, 1-Ethyl-3-[7-(6-methoxy-pyridin-3-yl)-5-(2-methyl-oxazol-5-yl)-[1,2,4]triazolo[1,5-a]pyridin-2-yl]-urea] | 16 (≈ 40.7 µM) |  |  |
| CCNC(=O)Nc1nc2cc(-c3cccnc3)cc(N(C)C3CCN(C)C3)n2n1 (centres unmarked) [Example 150, 1-Ethyl-3-(5-[methyl-(1-methyl-pyrrolidin-3-yl)-amino]-7-pyridin-3-yl-[1,2,4]triazolo[1,5-a]pyridin-2-yl)-urea] | 32 (≈ 81.1 µM) |  |  |
| CCNC(=O)c1cc(-c2cccnc2)cc2nc(NS(=O)(=O)CC)nn12 [Example 151, 2-N-ethylsulfonylamino-7-pyridin-3-yl-[1,2,4]triazolo[1,5-a]pyridin-5-carboxylic acid ethyl amide] |  |  | 32.0 (≈ 85.5 µM) |
| CCNC(=O)Nc1nc2cc(-c3cccnc3)cc(NC3CCN(C)CC3)n2n1 [Example 152, 1-Ethyl-3-[5-(1-methyl-piperidin-4-ylamino)-7-pyridin-3-yl[1,2,4]triazolo[1,5-a]pyridin-2-yl]-urea] | 8 (≈ 20.3 µM) |  |  |
| N-Methyl-N′-[5-(3-methylpyridin-2-yl)-7-pyridin-3-yl[1,2,4]triazolo[1,5-a]pyridin-2-yl]urea [Example 145] |  |  | 16.0 |
